The target in test [1] is T1, SIRT1 (Homo sapiens, UniProt Q96EB6).
T1 sequence (Q96EB6 1-747): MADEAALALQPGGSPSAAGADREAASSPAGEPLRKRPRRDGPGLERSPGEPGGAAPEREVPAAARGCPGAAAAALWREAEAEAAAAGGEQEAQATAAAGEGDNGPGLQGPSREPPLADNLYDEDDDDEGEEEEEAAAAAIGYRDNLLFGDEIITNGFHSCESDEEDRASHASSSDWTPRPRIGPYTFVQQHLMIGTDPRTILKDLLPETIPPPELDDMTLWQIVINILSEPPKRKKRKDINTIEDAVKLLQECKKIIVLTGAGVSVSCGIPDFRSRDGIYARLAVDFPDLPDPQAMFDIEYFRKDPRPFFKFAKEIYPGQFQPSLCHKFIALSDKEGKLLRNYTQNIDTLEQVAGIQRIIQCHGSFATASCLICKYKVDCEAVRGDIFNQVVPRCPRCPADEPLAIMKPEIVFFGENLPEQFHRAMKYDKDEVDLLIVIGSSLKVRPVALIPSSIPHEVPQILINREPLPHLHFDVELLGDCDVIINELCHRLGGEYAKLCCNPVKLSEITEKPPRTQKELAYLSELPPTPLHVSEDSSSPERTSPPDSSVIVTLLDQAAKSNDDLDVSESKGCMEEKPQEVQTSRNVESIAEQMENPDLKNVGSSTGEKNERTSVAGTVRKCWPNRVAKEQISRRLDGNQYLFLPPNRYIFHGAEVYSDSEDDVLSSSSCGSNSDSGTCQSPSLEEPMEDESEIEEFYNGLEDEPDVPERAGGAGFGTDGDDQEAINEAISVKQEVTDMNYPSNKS
As to the kind of experiment: Trp mass spectrometry assay of SIRT1 deacetylase activation. It is filed as biochemical. Conditions: Trp peptide substrate; for TRP EC1.5 (μM): concentration that results in 150% activation of SIRT1; for TRP % Fold Act: percent maximum fold activation relative to control (100%). The method, boiled down:
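His-tagged human SIRT1 (E. coli-expressed, 10 nM) was incubated with 0.5 μM Ac-RHKK(Ac)W-NH2 peptide and 120 μM βNAD+ for 25 min at 25 °C in HEPES pH 7.5, 1500 mM NaCl, with varying compound; formic acid quench. OAADPR or deacetylated peptide was quantified by mass spectrometry against DMSO control. EC1.5 (150% activation) and percent maximum activation were derived.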

The target in test [2] is T1, SIRT1. Description: TAMRA based mass spectrometry assay of SIRT1 deacetylase activation. Format: biochemical. Conditions: TAMRA peptide substrate; for TAMRA EC1.5 (μM): concentration that results in 150% activation of SIRT1; for TAMRA % Fold Act: percent maximum fold activation relative to control (100%). The method, boiled down: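 E. coli-expressed N-terminal His-tagged human SIRT1 (10 nM) was incubated 25 min at 25 °C, pH 8 Tris-acetate buffer, with 0.5 μM TAMRA-labelled p53-derived acetyl-peptide, 120 μM NAD+ and varying compound; formic acid stop, mass-spec quantitation of deacetylated product vs DMSO controls. EC1.5 = concentration giving 150% activation.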

In the case of `O=C(Nc1ccncn1)c1ccnc2cc(-c3cccc(C(F)(F)F)c3)nn12` [Compound 92], in test [1], the “TRP EC1.5 (μM)” value is on record as “C (EC1.5>25 μM)” and the “TRP % Fold Act” value is on record as “B (Fold Activation<350%)”. In addition, in test [2], the “TAMRA EC1.5 (μM)” value was “C (EC1.5>25 μM)” and the “TAMRA % Fold Act” value is recorded as “B (Fold Activation<350%)”.

On to `O=C(Nc1ccccn1)c1cc(N2CCOCC2)nn2cc(-c3cccc(Cl)c3)nc12` [Compound 32], for which, in test [1], the “TRP EC1.5 (μM)” value is recorded as “C (EC1.5>25 μM)” and the “TRP % Fold Act” value was “B (Fold Activation<350%)”. In test [2], the “TAMRA EC1.5 (μM)” value is reported as “C (EC1.5>25 μM)” and the “TAMRA % Fold Act” value is reported as “B (Fold Activation<350%)”.

As to `O=C(Nc1ccccn1)c1ccnc2cc(-c3ccccc3C(F)(F)F)nn12` [Compound 75], in test [1], the “TRP EC1.5 (μM)” value is given as “B (EC1.5 1−25 μM)” and the “TRP % Fold Act” value is “B (Fold Activation<350%)”. Moreover, in test [2], the “TAMRA EC1.5 (μM)” value is listed as “B (EC1.5 1−25 μM)” and the “TAMRA % Fold Act” value was “A (Fold activation≧350%)”.

For the compound `O=C(Nc1ccnc2cc(-c3ccccc3C(F)(F)F)nn12)c1cccnc1` [Compound 103], in test [1], the “TRP EC1.5 (μM)” value is “C (EC1.5>25 μM)” and the “TRP % Fold Act” value is “B (Fold Activation<350%)”. Besides, in test [2], the “TAMRA EC1.5 (μM)” value was “B (EC1.5 1−25 μM)” and the “TAMRA % Fold Act” value was “B (Fold Activation<350%)”.

As for `O=C(Nc1ccnc2cc(-c3ccccc3C(F)(F)F)nn12)c1cccc(N2CCOCC2)n1` [Compound 63], in test [1], the “TRP EC1.5 (μM)” value is given as “C (EC1.5>25 μM)” and the “TRP % Fold Act” value was “B (Fold Activation<350%)”. Moreover, in test [2], the “TAMRA EC1.5 (μM)” value is listed as “A (EC1.5<1 μM)” and the “TAMRA % Fold Act” value is “B (Fold Activation<350%)”.

As for `O=C(Nc1nccs1)c1cc(N2CCOCC2)nn2cc(-c3ccccc3C(F)(F)F)nc12` [Compound 42], in test [1], the “TRP EC1.5 (μM)” value is recorded as “C (EC1.5>25 μM)” and the “TRP % Fold Act” value is “B (Fold Activation<350%)”. In addition, in test [2], the “TAMRA EC1.5 (μM)” value is recorded as “B (EC1.5 1−25 μM)” and the “TAMRA % Fold Act” value was “B (Fold Activation<350%)”.

As to `O=C(Nc1ccnc2cc(-c3ccccc3C(F)(F)F)nn12)c1ccncn1` [Compound 62], in test [1], the “TRP EC1.5 (μM)” value is on record as “C (EC1.5>25 μM)” and the “TRP % Fold Act” value was “B (Fold Activation<350%)”. Moreover, in test [2], the “TAMRA EC1.5 (μM)” value is recorded as “B (EC1.5 1−25 μM)” and the “TAMRA % Fold Act” value was “B (Fold Activation<350%)”.

For the compound `O=C(Nc1ccnc2cc(-c3ccccc3C(F)(F)F)nn12)c1ccccn1` [Compound 59], in test [1], the “TRP EC1.5 (μM)” value is “B (EC1.5 1−25 μM)” and the “TRP % Fold Act” value was “B (Fold Activation<350%)”. For the same compound, in test [2], the “TAMRA EC1.5 (μM)” value is listed as “A (EC1.5<1 μM)” and the “TAMRA % Fold Act” value is listed as “A (Fold activation≧350%)”.

Consider `O=C(Nc1cnccn1)c1ccnc2cc(-c3cccc(C(F)(F)F)c3)nn12` [Compound 102], for which, in test [1], the “TRP EC1.5 (μM)” value is “C (EC1.5>25 μM)” and the “TRP % Fold Act” value is “B (Fold Activation<350%)”. In addition, in test [2], the “TAMRA EC1.5 (μM)” value is “C (EC1.5>25 μM)” and the “TAMRA % Fold Act” value was “B (Fold Activation<350%)”.

Regarding `Cn1cnc(C(=O)Nc2ccnc3cc(-c4ccccc4C(F)(F)F)nn23)c1` [Compound 94], in test [1], the “TRP EC1.5 (μM)” value was “C (EC1.5>25 μM)” and the “TRP % Fold Act” value was “B (Fold Activation<350%)”. Besides, in test [2], the “TAMRA EC1.5 (μM)” value is listed as “A (EC1.5<1 μM)” and the “TAMRA % Fold Act” value is given as “A (Fold activation≧350%)”.

Turning to `O=C(Nc1nccs1)c1ccnn2cc(-c3ccccc3C(F)(F)F)nc12` [Compound 13], in test [1], the “TRP EC1.5 (μM)” value is recorded as “A (EC1.5<1 μM)” and the “TRP % Fold Act” value is listed as “B (Fold Activation<350%)”. Moreover, in test [2], the “TAMRA EC1.5 (μM)” value is listed as “A (EC1.5<1 μM)” and the “TAMRA % Fold Act” value is “B (Fold Activation<350%)”.

Turning to `O=C(Nc1cccnc1)c1ccnc2cc(-c3ccccc3C(F)(F)F)nn12` [Compound 76], in test [1], the “TRP EC1.5 (μM)” value is on record as “B (EC1.5 1−25 μM)” and the “TRP % Fold Act” value is reported as “B (Fold Activation<350%)”. Further, in test [2], the “TAMRA EC1.5 (μM)” value was “B (EC1.5 1−25 μM)” and the “TAMRA % Fold Act” value is reported as “A (Fold activation≧350%)”.
